What was measured:
cultured podocytes [1] = assay: High-content F-actin stress fiber assay in cultured differentiated podocytes (phalloidin stain); format: cell-based, murine; details: 48 h at 37° C., 96-well plates
Description: (§1) A dose-response curve showing the effects of increasing concentration of podocyte injuring drug puromycin aminonucleoside (PAN) on various cellular parameters, including the intensity and the number of actin fibers, in cultured podocytes. Differentiated podocytes were cultured in 96-well multiwell plates. Cells were either kept in normal cell culture media or were treated with increasing concentration of PAN for 48 h at 37° C. Subsequently, the cells were fixed with paraformaldehyde and the filamentous actin (F-actin) fibers stained using Alexa Fluor 594-labeled phalloidin. Cells were imaged using PerkinElmer OPERA High-content screening microscope and the images were analyzed using PerkinElmer Columbus analysis system to count F-actin fibers per cell in each well of the multiwell plate. FIGS. 4A and 4B show representative images of untreated (A) and PAN-treated (B) podocytes. […] These two parameters also gave a reproducible IC50 value for PAN as an in vitro podocyte damaging agent. Each data point represents average F-actin fiber count per cell (from approximately 500-2000 cells/well) from a single well.
FIG. 5. […] Cells were imaged using PerkinElmer OPERA High-content screening microscope and the images were analyzed using PerkinElmer Columbus analysis system to count F-actin fibers per cell in each well of the multiwell plate. […]

cultured podocytes [2] = assay: High-content focal adhesion assay in cultured differentiated podocytes (anti-paxillin stain); format: cell-based, murine; details: 48 h at 37° C., 96-well plates
Description: as §1, with “FIG. 6. […]” for “A dose-response curve showing the effects of increasing concentration of podocyte injuring drug puromycin aminonucleoside (PAN) on various cellular parameters, including the intensity and the number of actin fibers, in cultured podocytes.”, “focal adhesions were” for “filamentous actin (F-actin) fibers”, “an anti-paxillin antibody.” for “Alexa Fluor 594-labeled phalloidin.”, “6A” for “4A”, “6B” for “4B”, “average” for “average F-actin fiber”
FIG. 7. Focal adhesion protection with Mizouribine. […] Cells were imaged using PerkinElmer OPERA High-content screening microscope and the images were analyzed using PerkinElmer Columbus analysis system to count F-actin fibers per cell in each well of the multiwell plate. […] The method allowed quantitative assessment of podocyte protection in a dose-response fashion using these parameters based on the podocyte focal adhesions when treated with the compounds PAN and mizouribine. […]

[3] = co-treatment with PAN and increasing concentration of mizouribine
[4] = increasing concentration of PAN

| Structure (SMILES) | protection of podocyte actin fibers from PAN damage (cultured podocytes [1]; [3]) | protection of podocyte focal adhesions from PAN damage (cultured podocytes [2]; [3]) | effect on intensity and number of actin fibers (relative spot to background intensity; whole cell fibers - number of objects) (cultured podocytes [1]; [4]) | effect on number and intensity of focal adhesions (relative spot to background intensity; FA - number of objects) (cultured podocytes [2]; [4]) |
| --- | --- | --- | --- | --- |
| NC(=O)c1ncn([C@@H]2O[C@H](CO)[C@@H](O)[C@H]2O)c1O [Mizouribine, mizouribine] | dose-dependently prevents podocyte damage | protects the focal adhesions from PAN damage | – | – |
| CN(C)c1ncnc2c1ncn2[C@@H]1O[C@H](CO)[C@@H](N)[C@H]1O [PAN, puromycin aminonucleoside] | – | – | podocyte damage in a dose-response fashion | leads to reduced focal adhesions |
